Test results published in patent publication US20250333440A1, “Azole Tripeptides as Vasodilators” (University of Kansas, priority 2024, published 2025).

How the values were obtained:
blood vessels in the CAM [1] = assay: chick chorioallantoic membrane assay (CAM), vasculature analysed with NIH ImageJ; format: in vivo, Brown Leghorn chicken embryos; settings: for effect on branching compared to DMSO control / effect on vascular density (VD) compared to DMSO control / effect on vessel diameter compared to DMSO control / effect on vessel length density (VLD) compared to DMSO control: 24 h after administration
Description: (§1) At day 2, the egg was carefully cleaned with isopropanol again and a small opening was carved near its air sac through which approximately 3 mL of albumin was removed. The opening was sealed with medical tape and a larger square opening of approximately 1×1 cm was carved near the center of the egg using a Dremer Stylo+ tool. The egg was further cleaned in order to remove debris and the eggshell membrane was carefully removed using sterilized tweezers. The opening was sealed using clear tape and the eggs were incubated for four more days under the same conditions after disabling the auto-turning mechanism of the incubator.
(§2) The tape covering the opening in the egg was carefully removed and the disc was carefully placed on top of the chorioallantoic membrane (e.g., CAM) using sterilized tweezers, then the opening was resealed, and the eggs were placed again in the incubator.
(§3) The paper disc was carefully removed, and the CAM was photographed. For the Miles assay approximately 100 μl of a 1% w/v solution of Evans Blue dye was injected in the CAM and infiltration of the dye into the blood vessels was analyzed using an Andonstar digital microscope equipped with a 60× magnification lens. If the dye infiltrated the blood vessels the test was considered positive. The photographs were later cropped to include only the CAM and analyzed using the NIH ImageJ software package as follows.
To analyze the extent of branching the blood vessels were carefully traced in order for the ImageJ software to be able to distinguish them for the background. The traced images were opened on the ImageJ software, converted into an 8 bit image and the threshold was adjusted to exclude any possible background signal. This process gave a binary (black and white) map of the vasculature which was then skeletonized (converted into a 1 pixel wide map) and the skeleton was analyzed to determine the number of branches and junction voxels (pixels connected to more than 2 other pixels, i.e. pixels in which the map divides).
To analyze the vascular length density and vascular density the cropped image was opened on the ImageJ software, and the Mexican Hat filter plugin was applied using a radius of 5.0. After this, the image was made binary and the Vascular Density function of the Vessel Analysis plugin was used to determine both parameters after carefully tracing the image so that only the CAM area was included on the calculation.
To analyze the vessel the cropped image was opened on the ImageJ software, and the Mexican Hat filter plugin was applied using a radius of 5.0.

[2] = tested on: chicken embryos exposed to CoCl2; assay: rescue of embryos administered a 100-fold lethal dose of hypoxia-inducing CoCl2; format: in vivo; settings: CoCl2 1 M; 2.4 g/kg on Day 6
blood vessels in the CAM [3] = assay: Miles assay (Evans Blue) / vascular permeability in the CAM; parameters: species or system Brown Leghorn chicken embryos; settings: in vivo
Description: as §3, with “After 24 hours, the tape was removed, and the opening was further expanded until all the possible area of the CAM was exposed. The paper” for “The paper”

chicken embryos = format: in vivo, Brown Leghorn chicken embryos; parameters: embryo survival: unit of the concentration uncertain; settings: for embryo survival: 40 (unit uncertain) dose; for embryo survival / embryos that survived: 24 h; for embryos that survived: 40 μM dose
Description: as §1, §2
The protocol included DMSO as a negative control and Razuprotafib as a positive control. The protocol also included the heptapeptide NLLMAAS as a negative control, which is an orthosteric antagonist of ANG-1.

[4] = single dose 40 μM (0.91 mg/kg) on Day 6, 24 h post dose

## COC(=O)[C@H](Cn1cncn1)NC(=O)[C@H](Cn1nnnc1C)NC(=O)[C@H](Cn1nnc2ccccc21)NC(=O)C(F)(F)F [Compound 1, methyl (S)-2-((S)-2-((S)-3-(1H-benzo[d][1,2,3]triazol-1-yl)-2-(2,2,2-trifluoroacetamido)propanamido)-3-(5-methyl-1H-tetrazol-1-yl)propanamido)-3-(1H-1,2,4-triazol-1-yl)propanoate]
Blood vessels in the CAM [1]; 40 μM
  aberrant angiogenesis or vascular remodeling (vessel density/branching mapping): did not induce
Blood vessels in the CAM [1]; CAM
  time for which activity comparable to FDA approved vasodilators at 10 minutes was maintained: 24 h
Blood vessels in the CAM [1]; [4]
  decrease in vessel length density (VLD) compared with DMSO control: 17%
  increase in vessel diameter compared with DMSO control: 124%
Blood vessels in the CAM [1]; single dose 40 μM (0.91 mg/kg) on Day 6, 24 h post dose, listed as Compound 2
  decrease in vessel length density (VLD) compared with DMSO control: 17%
[2]
  embryos rescued from a 100-fold lethal dose of CoCl2: 25%
Blood vessels in the CAM [3]
  integrity of vessel cell walls (Miles assay): did not weaken
  vascular permeability: did not increase permeability
Chicken embryos
  embryo survival: almost all embryos
Chicken embryos; single (Day 6) dosing at 40 μM
  indications of hazardous tumor growth or teratogenic effects: no indications
  mortality rates: not statistically significant

## COC(=O)N[C@@H](Cc1ccccc1)C(=O)N[C@@H](Cc1ccc(NS(=O)(=O)O)cc1)c1csc(-c2cccs2)n1 [Razuprotafib]
Blood vessels in the CAM [1]; 40 μM
  effect on branching compared to DMSO control: no changes were observed
  effect on vascular density (VD) compared to DMSO control: no changes were observed
  effect on vessel diameter compared to DMSO control: no changes were observed
  effect on vessel length density (VLD) compared to DMSO control: no changes were observed
Chicken embryos
  embryo survival: almost all embryos

## CCOC(=O)C1=C(COCCN)NC(C)=C(C(=O)OC)C1c1ccccc1Cl (centres unmarked) [amlodipine]
Chicken embryos
  embryos that survived: Two out of three

## O=[N+]([O-])O[C@@H]1CO[C@H]2[C@@H]1OC[C@@H]2O [isosorbide, isosorbide mononitrate]
Blood vessels in the CAM [1]; 40 μM
  effect on vascular density (VD) compared to DMSO control: did not observe effects
  effect on vessel diameter compared to DMSO control: did not observe effects
  effect on vessel length density (VLD) compared to DMSO control: did not observe effects
Chicken embryos
  embryos that survived: Two out of three

## NLLMAAS [heptapeptide NLLMAAS, an orthosteric antagonist of ANG-1 (antiangiogenic), negative control]
Blood vessels in the CAM [1]; 40 mM (1075 mg/Kg)
  effect on branching compared to DMSO control: did not have any effects
  effect on vascular density (VD) compared to DMSO control: did not have any effects
  effect on vessel diameter compared to DMSO control: did not have any effects
  effect on vessel length density (VLD) compared to DMSO control: did not have any effects

B1: ANG-1 protein: ANG-1 protein (Gibco) (protein, UniProt Q15389 16-498, looked up)
Angiopoietin-1: HIGCSNQRRSPENSGRRYNRIQHGQCAYTFILPEHDGNCRESTTDQYNTNALQRDAPHVEPDFSSQKLQHLEHVMENYTQWLQKLENYIVENMKSEMAQIQQNAVQNHTATMLEIGTSLLSQTAEQTRKLTDVETQVLNQTSRLEIQLLENSLSTYKLEKQLLQQTNEILKIHEKNSLLEHKILEMEGKHKEELDTLKEEKENLQGLVTRQTYIIQELEKQLNRATTNNSVLQKQQLELMDTVHNLVNLCTKEGVLLKGGKREEEKPFRDCADVYQAGFNKSGIYTIYINNMPEPKKVFCNMDVNGGGWTVIQHREDGSLDFQRGWKEYKMGFGNPSGEYWLGNEFIFAITSQRQYMLRIELMDWEGNRAYSQYDRFHIGNEKQNYRLYLKGHTGTAGKQSSLILHGADFSTKDADNDNCMCKCALMLTGGWWFDACGPSNLNGMFYTAGQNHGKLNGIKWHYFKGPSYSLRSTTMMIRPLDF
Blood vessels in the CAM [1]; 0.75 mg/Kg (proteins 18.87 μM, antibody 1 mg/mL)
  effects on CAM vasculature (vessel diameter, vessel length density) compared to DMSO controls: did not produce any effects significantly different
